Consider eight compounds from patent US20250228901A1, “COMPOSITION FOR PREVENTING, ALLEVIATING OR TREATING INFLAMMATORY SKIN DISEASES, COMPRISING CUTIBACTERIUM SP. STRAIN” (CJ Bioscience, Inc., priority 2021, published 2025).

The subject of one experiment is Raw264.7 macrophages. As to the kind of experiment: Inflammation regulation by living cells co-cultured with Raw264.7 macrophages, IL-6 and IL-10 ELISA. It counts as cell-based. To be noted: living cells co-cultured 1:1 with macrophages, 24 hours; compared to the B. fragilis strain. The procedure: The secured living cells and immunocytes (Raw264.7 macrophages) were co-cultured at the same ratio (1:1) of 5×10^4/well, respectively, in a 96 well plate for 24 hours, and then the inflammation regulation efficacy of the strains was confirmed. As a control group, a B. fragilis strain known as an inflammation alleviating strain was used. The secreted amounts of the inflammatory cytokine (IL-6) and anti-inflammatory cytokine (IL-10) secreted from the macrophages were measured by ELISA, and then values thereof were calculated at a ratio of IL-10/IL-6 and they were shown in FIG. 11.
(In general: ELISA stands for enzyme-linked immunosorbent assay.)

Experiment [1] has as its system mice in which rosacea is induced. As to the kind of experiment: Rosacea animal model induced by LL37 peptide. To be noted: for Dermal inflammation (histopathological evaluation score) / Epithelial hyperplasia (histopathological evaluation score): H&E staining of LL37-administered skin, culture products 150 μl i.p. x3, doxycycline 1 mg/kg x3, LL37 = rosacea induction only; for Total (histopathological evaluation score): sum of epithelial hyperplasia and dermal inflammation scores. In kind it is in vivo, BALB/c mice. Here is the method: For the present animal effectiveness test, 32 5-week-old female BALB/c mice were purchased from Orient Bio company, and brought into a breeding room with a 12-hour artificial photoperiod, and acclimatized for one week, and then used in the experiment.
To make a rosacea animal model, hair on the mice's back area was removed using a depilator and hair removal cream. In 24 hours after depilation, to induce rosacea lesions, LL37 peptide (Peptron, Co., Ltd) of 320 μM was under intradermal injection using an insulin syringe by 50 μl. […] Doxycycline, which is one of conventional rosacea therapies, was peritoneally administered by 1 mg/kg once a day, for 3 days (total 3 times).
After 24 hours of the last strain culture product administration, the size (area) of erythema was measured using a caliper, and the animals were euthanized using CO2 gas, and then the lesion area was taken as a photograph and the degree of the erythema was observed by naked eyes and the tissue photographs and the area of the inflammation area were shown in FIG. 14a and FIG. 14b as graphs.

As for Cutibacterium acnes CJRS-10656, in the experiment on Raw264.7 macrophages, the “secreted amount of the anti-inflammatory cytokine (IL-10)” value (“secreted amount … (IL-10)” for short) is recorded as “promoted” and the “secreted amount of the inflammatory cytokine (IL-6)” value (shortened to “secreted amount … (IL-6)”) is listed as “reduced”.

In the case of Cutibacterium acnes CJRS-10655, in the experiment on Raw264.7 macrophages, the “secreted amount … (IL-10)” value is given as “promoted” and the “secreted amount … (IL-6)” value is on record as “reduced”.

In the case of Cutibacterium acnes CJRS-10652, in the experiment with Raw264.7 macrophages, the “secreted amount … (IL-10)” value is “promoted” and the “secreted amount … (IL-6)” value is on record as “reduced”.

Take Cutibacterium acnes CJRS-10654: in the experiment on Raw264.7 macrophages, the “secreted amount … (IL-10)” value is given as “promoted” and the “secreted amount … (IL-6)” value is reported as “reduced”.

Take LL37: in experiment [1], the “Dermal inflammation (histopathological evaluation score)” value stood at 2.5, the “Epithelial hyperplasia (histopathological evaluation score)” value came to 2.75 and the “Total (histopathological evaluation score)” value is 5.25.

Cutibacterium acnes CJRS-10653: in the experiment with Raw264.7 macrophages, the “secreted amount … (IL-10)” value is reported as “promoted” and the “secreted amount … (IL-6)” value was “reduced”.

As to Cutibacterium acnes CJRS-10651, in the experiment on Raw264.7 macrophages, the “secreted amount … (IL-10)” value was “promoted” and the “secreted amount … (IL-6)” value is listed as “reduced”.

On to `C[C@H]1c2cccc(O)c2C(=O)C2=C(O)[C@]3(O)C(=O)C(C(N)=O)=C(O)[C@@H](N(C)C)[C@@H]3[C@@H](O)[C@@H]21` [doxycycline], for which, in experiment [1], the “Dermal inflammation (histopathological evaluation score)” value is given as 2.4, the “Epithelial hyperplasia (histopathological evaluation score)” value worked out at 1.2 and the “Total (histopathological evaluation score)” value is 3.6.
